Results as given in patent US9487489B2, “Halogen-substituted pyrazole derivatives as pest-control agents” (BAYER CROPSCIENCE AKTIENGESELLSCHAFT, priority 2013, dated 2016).

Tests used:
[1] = tested on: greenhouse red spider mite (Tetranychus urticae); test: Tetranychus urticae spray test, OP-resistant (TETRUR); type: in vivo; details: bean leaf discs, after 6 days
Description: J. Tetranychus urticae-spray Test, OP-Resistant (TETRUR)
(§1) Solvent: 78.0 parts by weight of acetone
(§2) • 1.5 parts by weight of dimethylformamide Emulsifier: alkylaryl polyglycol ether
(§3) To produce a suitable preparation of active compound, 1 part by weight of active compound is dissolved using the stated parts by weight of solvent and made up with water comprising an emulsifier concentration of 1000 ppm until the desired concentration is reached. To produce further test concentrations, the preparation is diluted with emulsifier-containing water.
Discs of bean leaves (Phaseolus vulgaris) which are infested by all stages of the greenhouse red spider mite (Tetranychus urticae) are sprayed with an active compound preparation of the desired concentration.
After 6 days, the efficacy in % is determined. 100% means that all of the spider mites have been killed; 0% means that none of the spider mites have been killed.

[2] = tested on: adult cat fleas (Ctenocephalides felis); test: Ctenocephalides felis oral test (CTECFE); type: in vivo; details: application rate 100 ppm in citrated cattle blood; after 2 days
Description: D. Ctenocephalides felis-oral Test (CTECFE)
(§4) Solvent: dimethyl sulphoxide
To produce a suitable preparation of active compound, 10 mg of active compound are mixed with 0.5 ml of dimethyl sulphoxide. Dilution with citrated cattle blood gives the desired concentration.
About 20 unfed adult cat fleas (Ctenocephalides felis) are placed into a chamber which is closed at the top and bottom with gauze. A metal cylinder whose bottom end is closed with a parafilm is placed onto the chamber. The cylinder contains the blood/active ingredient preparation, which can be imbibed by the fleas through the parafilm membrane.
After 2 days, the kill in % is determined 100% means that all of the fleas have been killed; 0% means that none of the fleas have been killed.

[3] = logP determination by HPLC on a reversed-phase column (C18), EEC Directive 79/831 Annex V.A8; type: physicochemical; details: HPLC on reversed-phase column (C18), acetonitrile/water with formic acid, EEC Directive 79/831 Annex V.A8
Method in brief: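 Per EEC 79/831 Annex V.A8, values derive from HPLC retention at 2.0 ml/min and 55° C on a 50*4.6 C18 column. The 10→95% acetonitrile gradient (0.1%/0.09% formic acid) lasted 4.25 min plus a 1.25 min hold; mass detection was by MSD.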

[4] = tested on: larvae of the mustard beetle (Phaedon cochleariae); test: Phaedon cochleariae spray test (PHAECO); type: in vivo; details: Chinese cabbage leaf discs, after 7 days
Method in brief: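 Kill of mustard beetle larvae is read as % mortality 7 days after spraying. Spray liquid: active compound in acetone plus dimethylformamide, brought up with water holding 1000 ppm alkylaryl polyglycol ether emulsifier and diluted further in emulsifier-water.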

[5] = tested on: engorged adult female cattle ticks (Boophilus microplus); test: Boophilus microplus injection test (BOOPMI Inj); type: in vivo; details: application rate 20 μg/animal; injection into abdomen; assessed after 7 days
Description: C. Boophilus microplus-injection Test (BOOPMI Inj)
as §4
To produce a suitable preparation of active compound, 10 mg of active compound are mixed with 0.5 ml of solvent, and the concentrate is diluted with solvent to the desired concentration.
1 μl of the active compound solution is injected into the abdomen of 5 engorged adult female cattle ticks (Boophilus microplus). The animals are transferred into dishes and kept in a climate-controlled room.
The activity is assessed after 7 days by laying of fertile eggs. Eggs whose fertility is not visible from the outside are stored in a climate-controlled cabinet until the larvae hatch after about 42 days. An efficacy of 100% means that none of the ticks has laid any fertile eggs; 0% means that all eggs are fertile.

[6] = tested on: L1 larvae of the Australian sheep blowfly (Lucilia cuprina); test: Lucilia cuprina test (LUCICU); type: in vivo; details: application rate 100 ppm; after 2 days
Description: E. Lucilia cuprina Test (LUCICU)
as §4
(§5) To produce a suitable preparation of active compound, 10 mg of active compound are mixed with 0.5 ml of dimethyl sulphoxide, and the concentrate is diluted with water to the desired concentration.
About 20 L1 larvae of the Australian sheep blowfly (Lucilia cuprina) are transferred into a test vessel containing minced horsemeat and the active compound preparation of the desired concentration.
After 2 days, the kill in % is determined 100% means that all of the larvae have been killed; 0% means that none of the larvae have been killed.

[7] = tested on: caterpillars of the armyworm (Spodoptera frugiperda); test: Spodoptera frugiperda spray test (SPODFR); type: in vivo; details: maize leaf discs, after 7 days
Description: I. Spodoptera frugiperda-spray Test (SPODFR)
as §1, §2, §3
Leaf discs of maize (Zea mays) are sprayed with an active compound preparation of the desired concentration and, after drying, populated with caterpillars of the armyworm (Spodoptera frugiperda).
After 7 days, the efficacy in % is determined. 100% means that all of the caterpillars have been killed; 0% means that none of the caterpillars have been killed.

[8] = tested on: adult cat fleas (Ctenocephalides felis); test: Ctenocephalides felis in vitro contact test with adult cat fleas (T1); details: after 48 h
Method in brief: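 Adult cat fleas (Ctenocephalides felis), 5-10 per tube, were exposed to the inner surface of 25 ml test tubes coated with compound in acetone. Tubes were incubated lying flat under ambient conditions. Efficacy was then read by standing tubes upright and knocking the fleas to the floor. Fleas that stayed motionless or moved uncoordinatedly counted as dead or moribund, where 100% means all fleas dead or moribund and 0% means none harmed.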

[9] = tested on: adult houseflies (Musca domestica); test: Musca domestica test (MUSCDO); type: in vivo; details: application rate 100 ppm; after 2 days
Description: F. Musca domestica Test (MUSCDO)
as §4, §5
Vessels containing a sponge treated with sugar solution and the active compound preparation of the desired concentration are populated with 10 adult houseflies (Musca domestica).
After 2 days, the kill in % is determined. 100% means that all of the flies have been killed; 0% means that none of the flies have been killed.

[10] = tested on: adult dog ticks (Rhipicephalus sanguineus); test: Rhipicephalus sanguineus in vitro contact test with adult brown dog ticks (T2); details: after 48 h
Description: T2. Rhipicephalus sanguineus-in vitro Contact Tests with Adult Brown Dog Ticks
For the coating of the test tubes, initially 9 mg of active compound are dissolved in 1 ml of acetone p.a. and then diluted with acetone p.a. to the desired concentration. By turning and rocking on an orbital shaker (2 h of rocking rotation at 30 rpm), 250 μl of the solution are distributed homogeneously on the internal walls and the floor of a 25 ml test tube. At 900 ppm active compound solution and 44.7 cm^2 internal surface, an area dose of 5 μg/cm^2 is achieved for homogeneous distribution.
After evaporation of the solvent, the tubes are populated with 5-10 adult dog ticks (Rhipicephalus sanguineus), sealed with a perforated plastic lid and incubated in a horizontal position in the dark at room temperature and ambient humidity. After 48 h, the efficacy is determined. To this end, the ticks are knocked to the floor of the tube and incubated on a hotplate at 45-50° C. for at most 5 min Ticks which remain motionless on the floor or move in an uncoordinated manner such that they are not able to deliberately avoid the heat by climbing upwards are considered to be dead or moribund.
An efficacy of 100% means that all ticks were dead or moribund. 0% efficacy means that none of the ticks had been damaged.

| Compound | efficacy in % ([1]; application rate 100 g/ha) [%] | efficacy (kill in %) [2] [%] | logP [3] | efficacy in % ([4]; application rate 100 g/ha) [%] | efficacy (laying of fertile eggs) [5] [%] | efficacy (kill in %) [6] [%] | efficacy in % ([4]; application rate 500 g/ha) [%] | efficacy in % ([7]; application rate 100 g/ha) [%] | efficacy in % ([1]; application rate 500 g/ha) [%] | efficacy (dead or moribund fleas) ([8]; application rate 1 μg/cm^2) [%] | efficacy (dead or moribund fleas) ([8]; application rate 5 μg/cm^2) [%] | efficacy in % ([7]; application rate 500 g/ha) [%] | efficacy (kill in %) [9] [%] | efficacy (dead or moribund ticks) ([10]; application rate 1 μg/cm^2) [%] | efficacy (dead or moribund ticks) ([10]; application rate 5 μg/cm^2) [%] |
| --- | --- | --- | --- | --- | --- | --- | --- | --- | --- | --- | --- | --- | --- | --- | --- |
| CON=Cc1c(C(F)(F)F)nn(C)c1-n1cc(-c2ccc(Cl)c(C(=O)NC3(C#N)CC3)c2)cn1 (mixture of isomers) [Ic-99] | 100 | 100 | 3.09 | 100 | 100 | 80 | – | – | – | – | – | – | – | – | – |
| COc1cc(C(=O)NC2(C#N)CC2)cc(-c2cnn(-c3c(C(F)(F)F)c(C(F)(F)C(F)(F)F)nn3C)c2)c1 [Ic-63] | 100 | 95 | – | – | 100 | 100 | 100 | – | – | – | – | – | – | – | – |
| Cc1cc(C(=O)NC2(C#N)CC2)cc(-c2cnn(-c3c(C(F)(F)F)c(C(F)(F)C(F)(F)F)nn3C)c2)c1 [Ic-56] | 90 | 100 | – | – | 100 | 100 | 100 | – | – | – | – | – | – | – | – |
| Cn1nc(C(F)(F)C(F)(F)F)c(C(F)(F)F)c1-n1cc(-c2ccc(Cl)c(C(=O)NCc3cccs3)c2)cn1 [Ic-10] | 100 | 98 | 4.40 | 100 | 100 | 100 | – | 100 | – | – | – | – | – | – | – |
| COCC(C)NC(=O)c1cc(-c2cnn(-c3c(C(F)(F)F)c(C(F)(F)C(F)(F)F)nn3C)c2)ccc1Cl (centres unmarked) [Ic-165] | – | 100 | – | – | 100 | 100 | 100 | – | 100 | 100 | 100 | 100 | – | – | – |
| Cn1nc(C(F)(F)C(F)(F)F)c(C(F)(F)F)c1-n1cc(-c2cc(C(=O)NC3(C#N)CC3)ccc2Cl)cn1 [Ic-45] | – | 100 | – | – | – | 100 | 100 | – | – | – | – | 100 | 100 | – | – |
| Cn1nc(C(F)(F)C(F)(F)F)c(C(F)(F)F)c1-n1cc(-c2ccc(Cl)c(C(=O)Nc3ccncc3)c2)cn1 [Ic-22] | 100 | 100 | 2.38 | 100 | 100 | 100 | – | 100 | – | – | – | – | – | – | – |
| Cn1nc(C(F)(F)C(F)(F)F)c(C(F)(F)F)c1-n1cc(-c2ccc(Cl)c(C(=O)NCc3cc[nH]n3)c2)cn1 [Ic-157] | – | 90 | – | – | 100 | 100 | 100 | – | 100 | – | – | 100 | – | – | – |
| Cc1c(-c2ccc(Cl)c(C(=O)NC3CC3)c2)cnn1-c1c(C(F)(F)F)c(C(F)(F)C(F)(F)F)nn1C [Ic-13] | 90 | 100 | 3.88 | 100 | 100 | 100 | – | 100 | – | – | – | – | – | – | – |
| Cn1nc(C(F)(F)C(F)(F)F)c(C(F)(F)F)c1-n1cc(-c2cccc(C(=O)NCc3cccs3)c2)cn1 [Ic-20] | 100 | 100 | 4.20 | 100 | 100 | 100 | – | 100 | – | – | – | – | – | – | – |
| Cc1ccc(C(=O)NC2(C#N)CC2)cc1-c1cnn(-c2c(C(F)(F)F)c(C(F)(F)C(F)(F)F)nn2C)c1 [Ic-58] | – | 100 | – | – | 100 | 100 | 100 | – | – | – | – | – | 80 | – | – |
| Cn1nc(C(F)(F)C(F)(F)F)c(C(F)(F)F)c1-n1cc(-c2ccc(Cl)c(C(=O)Nc3cc[nH]n3)c2)cn1 [Ic-150] | – | 100 | – | – | 100 | 100 | 100 | – | 100 | – | – | 100 | – | – | – |
| Cc1cc(C(=O)NC2CC2)cc(-c2cnn(-c3c(C(F)(F)F)c(C(F)(F)C(F)(F)F)nn3C)c2)c1 [Ic-54] | – | 100 | – | – | 100 | 100 | 100 | – | – | – | – | – | – | 100 | 100 |
| CC(C)C(C)NC(=O)c1cc(-c2cnn(-c3c(C(F)(F)F)c(C(F)(F)C(F)(F)F)nn3C)c2)ccc1Cl (centres unmarked) [Ic-137] | – | 100 | – | – | 100 | 100 | 83 | – | 100 | – | – | – | – | – | – |
| Cc1ccc(C(=O)NC2CC2)cc1-c1cnn(-c2c(C(F)(F)F)c(C(F)(F)C(F)(F)F)nn2C)c1 [Ic-57] | – | 100 | – | 83 | – | 100 | – | – | – | – | – | – | 100 | – | – |
| Cn1nc(C(F)(F)C(F)(F)F)c(C(F)(F)F)c1-n1cc(-c2cccc(C(=O)NCc3ccccc3)c2)cn1 [Ic-17] | 100 | 90 | 4.31 | 100 | 100 | 100 | – | 100 | – | – | – | – | – | – | – |
| Cn1nc(C(F)(F)C(F)(F)F)c(C(F)(F)F)c1-n1cc(-c2ccc(Cl)c(C(=O)Nc3cccnc3)c2)cn1 [Ic-149] | – | 100 | – | – | 100 | 100 | 100 | – | 100 | 80 | 100 | 100 | – | – | – |
